Results as given in patent US20250353833A1, “DPP9 BINDING COMPOUNDS” (UNIVERSITEIT ANTWERPEN, priority 2022, published 2025).
Where a name gives a salt, the structure may show the parent alone. Read-outs that look alike come from different tables or passages of the source.

How the values were obtained:
DPP8 = DPP8 (Homo sapiens (Human), UniProt Q6V1X1); assay: DPP8 enzyme inhibition, IC50 measurement (Ala-Pro-pNA release); assay type: biochemical; settings: Table 3; mean ± SD (n = 3); read-out: DPP8 IC50 ± SD
Sequence of DPP8 (Q6V1X1 whole entry): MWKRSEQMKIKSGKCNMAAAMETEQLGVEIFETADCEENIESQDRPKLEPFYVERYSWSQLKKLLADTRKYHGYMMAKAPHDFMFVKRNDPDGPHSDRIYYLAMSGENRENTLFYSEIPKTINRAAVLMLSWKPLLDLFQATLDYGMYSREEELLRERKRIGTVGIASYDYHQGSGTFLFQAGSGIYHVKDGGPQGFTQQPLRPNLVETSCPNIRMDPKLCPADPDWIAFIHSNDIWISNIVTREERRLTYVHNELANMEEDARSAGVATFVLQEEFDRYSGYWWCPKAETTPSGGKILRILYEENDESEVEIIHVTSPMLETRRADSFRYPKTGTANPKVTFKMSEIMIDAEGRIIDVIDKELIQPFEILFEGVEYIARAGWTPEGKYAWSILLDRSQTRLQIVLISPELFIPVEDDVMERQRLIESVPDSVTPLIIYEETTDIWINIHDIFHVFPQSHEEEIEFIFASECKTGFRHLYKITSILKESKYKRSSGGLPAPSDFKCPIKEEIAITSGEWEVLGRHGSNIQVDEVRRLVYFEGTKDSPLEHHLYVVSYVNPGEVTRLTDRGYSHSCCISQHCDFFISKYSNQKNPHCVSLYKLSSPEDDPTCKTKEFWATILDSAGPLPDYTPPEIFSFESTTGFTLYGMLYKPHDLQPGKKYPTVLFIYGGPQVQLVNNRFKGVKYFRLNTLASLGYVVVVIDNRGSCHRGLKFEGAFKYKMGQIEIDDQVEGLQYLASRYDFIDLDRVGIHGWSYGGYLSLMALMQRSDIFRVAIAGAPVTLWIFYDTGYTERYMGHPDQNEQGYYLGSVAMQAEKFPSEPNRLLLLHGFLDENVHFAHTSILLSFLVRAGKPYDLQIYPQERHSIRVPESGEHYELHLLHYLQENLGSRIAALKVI
Description: (§1) IC50 measurements. […] The Magellan software was used to process the data, which was then fitted using a non-linear fit model in GraFit 7. […] As a blank, the assay buffer was used instead of the enzyme. Screening measurements were carried out in duplo and IC50 values were determined in triplo with at least eight different inhibitor concentrations as described by Van Goethem et al.

DPP9 = DPP9 (Homo sapiens (Human), UniProt Q86TI2); assay: DPP9 enzyme inhibition, IC50 measurement (Ala-Pro-pNA release); assay type: biochemical; settings: for SI DPP9/8 / SI DPP9/DPP8: selectivity index; for SI DPP9/8: DPP8 IC50 over DPP9 IC50; for SI DPP9/DPP8: Table 4
Sequence of DPP9 (Q86TI2 whole entry): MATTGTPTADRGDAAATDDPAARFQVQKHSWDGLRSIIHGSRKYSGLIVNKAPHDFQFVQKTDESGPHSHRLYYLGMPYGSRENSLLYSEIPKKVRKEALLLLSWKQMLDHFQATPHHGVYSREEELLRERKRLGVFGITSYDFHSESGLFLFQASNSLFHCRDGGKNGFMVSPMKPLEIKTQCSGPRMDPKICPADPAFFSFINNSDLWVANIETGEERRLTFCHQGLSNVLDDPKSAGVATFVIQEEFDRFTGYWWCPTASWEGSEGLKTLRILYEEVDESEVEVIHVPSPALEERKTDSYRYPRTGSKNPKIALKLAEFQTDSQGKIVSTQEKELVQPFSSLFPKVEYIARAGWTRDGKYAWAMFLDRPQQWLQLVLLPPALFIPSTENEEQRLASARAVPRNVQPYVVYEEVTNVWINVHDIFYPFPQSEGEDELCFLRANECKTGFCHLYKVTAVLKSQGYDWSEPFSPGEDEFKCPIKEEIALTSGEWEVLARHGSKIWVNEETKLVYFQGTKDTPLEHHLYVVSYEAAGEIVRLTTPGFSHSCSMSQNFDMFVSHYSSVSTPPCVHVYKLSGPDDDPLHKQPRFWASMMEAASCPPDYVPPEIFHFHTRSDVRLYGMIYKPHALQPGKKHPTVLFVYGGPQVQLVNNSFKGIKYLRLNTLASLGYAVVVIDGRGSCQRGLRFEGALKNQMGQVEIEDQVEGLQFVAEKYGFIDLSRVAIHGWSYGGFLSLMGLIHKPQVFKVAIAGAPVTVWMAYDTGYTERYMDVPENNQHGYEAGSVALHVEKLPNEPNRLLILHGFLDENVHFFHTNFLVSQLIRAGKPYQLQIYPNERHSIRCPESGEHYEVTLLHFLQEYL
Description: DPP4 was purified from human seminal plasma as described previously.^[3]
as §1

[1] = Table 3, mean ± SD (n = 3), read-out: DPP9 IC50 ± SD

Row | Structure (SMILES) | SI DPP9/DPP8 (DPP9) | further results
1 | O=C1CCC(N2C(=O)c3cccc(NCCOCCNC(=O)NC45CC6CC(CC(NCC(=O)N7Cc8ccc(F)cc8C7)(C6)C4)C5)c3C2=O)C(=O)N1 (stereo not drawn) [Compound 77, 1-(2-(2-((2-(2,6-Dioxopiperidin-3-yl)-1,3-dioxoisoindolin-4-yl)amino)ethoxy)ethyl)-3-(3-((2-(5-fluoroisoindolin-2-yl)-2-oxoethyl)amino)adamantan-1-yl)urea] | – | IC50 (DPP8): 21 nM; IC50 (DPP9; [1]): 2.4 nM; SI DPP9/8 (DPP9; Table 3): 9
2 | CC(C)(C)OC(=O)NC12CC3CC(CC(NCC(=O)N4Cc5cc(F)c(F)cc5C4)(C3)C1)C2 [Compound 49] | – | IC50 (DPP8): 613 ± 154 nM; IC50 (DPP9; [1]): 3.4 nM; SI DPP9/8 (DPP9; Table 3): 180.3
3 | Cl.N#Cc1ccc(C(=O)NC23CC4CC(CC(NCC(=O)N5Cc6ccc(F)cc6C5)(C4)C2)C3)cc1 [Compound 96, 4-cyano-N-((1s,3r,5R,7S)-3-((2-(5-fluoroisoindolin-2-yl)-2-oxoethyl)amino)adamantan-1-yl)benzamide hydrochloride] | 12 | –
4 | Cl.O=C(NC12CC3CC(CC(NCC(=O)N4Cc5ccc(F)cc5C4)(C3)C1)C2)c1ccc(-c2ccccc2)nc1 [Compound 89, N-((1s,3r,5R,7S)-3-((2-(5-fluoroisoindolin-2-yl)-2-oxoethyl)amino)adamantan-1-yl)-6-phenylnicotinamide hydrochloride] | 28 | –
5 | Cl.O=C(NC12CC3CC(CC(NCC(=O)N4Cc5ccc(F)cc5C4)(C3)C1)C2)c1ccc(-c2cccs2)nc1 [Compound 100, N-((1s,3r,5R,7S)-3-((2-(5-fluoroisoindolin-2-yl)-2-oxoethyl)amino)adamantan-1-yl)-6-(thiophen-2-yl)nicotinamide hydrochloride] | 22 | –
6 | N#C[C@@H]1[C@@H]2C[C@@H]2CN1C(=O)CNC12CC3CC(CC(O)(C3)C1)C2 [Compound 5l, (1R,2S,5S)-3-((3-hydroxyadamantan-1-yl)glycyl)-3-azabicyclo[3.1.0]hexane-2-carbonitrile] | – | DPP9/8 selectivity index (DPP9): > 10
7 | Cl.O=C(NC12CC3CC(CC(NCC(=O)N4Cc5ccc(F)cc5C4)(C3)C1)C2)c1ccc(-c2cccs2)cc1 [Compound 92, N-((1s,3r,5R,7S)-3-((2-(5-fluoroisoindolin-2-yl)-2-oxoethyl)amino)adamantan-1-yl)-4-(thiophen-2-yl)benzamide hydrochloride] | 27 | –
8 | Cl.O=C(NC12CC3CC(CC(NCC(=O)N4Cc5ccc(F)cc5C4)(C3)C1)C2)c1ccc(-c2ccc(F)cc2)cc1 [Compound 93, 4′-fluoro-N-((1s,3r,5R,7S)-3-((2-(5-fluoroisoindolin-2-yl)-2-oxoethyl)amino)adamantan-1-yl)-[1,1′-biphenyl]-4-carboxamide hydrochloride] | 59 | –
9 | Cl.O=C(NC12CC3CC(CC(NCC(=O)N4Cc5ccc(F)cc5C4)(C3)C1)C2)c1cnc2ccccc2c1 [Compound 99, N-((1s,3r,5R,7S)-3-((2-(5-fluoroisoindolin-2-yl)-2-oxoethyl)amino)adamantan-1-yl)quinoline-3-carboxamide hydrochloride] | 13 | –
10 | Cl.O=C(NC12CC3CC(CC(NCC(=O)N4Cc5ccc(F)cc5C4)(C3)C1)C2)c1ccc(-c2ccccc2)cc1 [Compound 87, N-((1s,3r,5R,7S)-3-((2-(5-fluoroisoindolin-2-yl)-2-oxoethyl)amino)adamantan-1-yl)-[1,1′-biphenyl]-4-carboxamide hydrochloride] | 54 | –
11 | Cl.O=C(NC12CC3CC(CC(NCC(=O)N4Cc5ccc(F)cc5C4)(C3)C1)C2)c1ccc(-c2ccccc2)s1 [Compound 97, N-((1s,3r,5R,7S)-3-((2-(5-fluoroisoindolin-2-yl)-2-oxoethyl)amino)adamantan-1-yl)-5-phenylthiophene-2-carboxamide hydrochloride] | 11 | –
12 | Cl.O=C(NC12CC3CC(CC(NCC(=O)N4Cc5ccc(F)cc5C4)(C3)C1)C2)c1ccc(-c2ccccc2F)cc1 [Compound 94, 2′-fluoro-N-((1s,3r,5R,7S)-3-((2-(5-fluoroisoindolin-2-yl)-2-oxoethyl)amino)adamantan-1-yl)-[1,1′-biphenyl]-4-carboxamide hydrochloride] | 26 | –
13 | CCCCNC12CC3CC(C1)CC(NCC(=O)N1Cc4ccccc4C1)(C3)C2 [Compound 25, 2-((3-(butylamino)adamantan-1-yl)amino)-1-(isoindolin-2-yl)ethan-1-one 2,2,2-trifluoroacetate] | – | IC50 (DPP9; [1]): 477 ± 28 nM; SI DPP9/8 (DPP9; Table 3): >21

Further lines, with some results ahead:

Row | SI DPP9/DPP8 (DPP9) | Structure (SMILES) | further results
14 | 25 | COC(=O)c1csc(-c2ccc(C(=O)NC34CC5CC(CC(NCC(=O)N6Cc7ccc(F)cc7C6)(C5)C3)C4)cc2)c1.Cl [Compound 103, Methyl 5-(4-((-3-((2-(5-fluoroisoindolin-2-yl)-2-oxoethyl)amino)adamantan-1-yl)carbamoyl)phenyl)thiophene-3-carboxylate hydrochloride] | –
15 | 4 | Cl.O=C(NC12CC3CC(CC(NCC(=O)N4Cc5ccc(F)cc5C4)(C3)C1)C2)c1cccc(-c2ccccc2)c1 [Compound 101, N-((1s,3r,5R,7S)-3-((2-(5-fluoroisoindolin-2-yl)-2-oxoethyl)amino)adamantan-1-yl)-[1,1′-biphenyl]-3-carboxamide hydrochloride] | –
16 | 2 | O=C(CNC12CC3CC(C1)CC(Nc1ccc(-c4ccccc4)nc1)(C3)C2)N1Cc2ccc(F)cc2C1 [Compound 109, 1-(5-fluoroisoindolin-2-yl)-2-((-3-((6-phenylpyridin-3-yl)amino)adamantan-1-yl)amino)ethan-1-one dihydrochloride] | –
17 | 27 | Cl.O=C(NC12CC3CC(CC(NCC(=O)N4Cc5ccc(F)cc5C4)(C3)C1)C2)c1ccc(-c2ccc(O)cc2)cc1 [Compound 105, N-(-3-((2-(5-fluoroisoindolin-2-yl)-2-oxoethyl)amino)adamantan-1-yl)-4′-hydroxy-[1,1′-biphenyl]-4-carboxamide hydrochloride] | –
18 | 46 | COC(=O)c1ccc(-c2ccc(C(=O)NC34CC5CC(CC(NCC(=O)N6Cc7ccc(F)cc7C6)(C5)C3)C4)cc2)cc1 [Compound 104, Methyl 4′-((-3-((2-(5-fluoroisoindolin-2-yl)-2-oxoethyl)amino)adamantan-1-yl)carbamoyl)-[1,1′-biphenyl]-4-carboxylate hydrochloride] | IC50 (DPP9; read-out: IC50 DPP9): 1 nM
19 | 7 | O=C(CCCCC1SCC2NC(=O)NC21)NCCOCCOCCOCCNC(=O)NC12CC3CC(CC(NCC(=O)N4Cc5cc(F)c(F)cc5C4)(C3)C1)C2 (stereo not drawn) [Compound 115, N-(1-((3-((2-(5,6-difluoroisoindolin-2-yl)-2-oxoethyl)amino)adamantan-1-yl)amino)-1-oxo-5,8,11-trioxa-2-azatridecan-13-yl)-5-(2-oxohexahydro-1H thieno[3,4-d]imidazol-4-yl)pentanamide] | –
20 | 21 | CC[N+]1=C(/C=C/C=C2/N(CCCCCC(=O)NC34CC5CC(CC(NCC(=O)N6Cc7ccc(F)cc7C6)(C5)C3)C4)c3ccc(S(=O)(=O)O)cc3C2(C)C)C(C)(C)c2cc(S(=O)(=O)[O-])ccc21 [Compound 120, 1-ethyl-2-((E)-3-((E)-1-(6-((-3-((2-(5-fluoroisoindolin-2-yl)-2-oxoethyl)amino)adamantan-1-yl)amino)-6-oxohexyl)-3,3-dimethyl-5-sulfoindolin-2-ylidene)prop-1-en-1-yl)-3,3-dimethyl-3H-indol-1-ium-5-sulfonate] | –
21 | 11 | Cc1ncsc1-c1ccc(CNC(=O)[C@@H]2C[C@@H](O)CN2C(=O)[C@@H](NC(=O)c2csc(-c3ccc(C(=O)NC45CC6CC(CC(NCC(=O)N7Cc8ccc(F)cc8C7)(C6)C4)C5)cc3)c2)C(C)(C)C)cc1 [Compound 122, (2S,4R)-1-((2S)-2-(5-(4-((3-((2-(5-fluoroisoindolin-2-yl)-2-oxoethyl)amino)adamantan-1-yl)carbamoyl)phenyl)thiophene-3-carboxamido)-3,3-dimethylbutanoyl)-4-hydroxy-N-(4-(4-methylthiazol-5-yl)benzyl)pyrrolidine-2-carboxamide] | –
22 | 4 | Cl.O=C(CNC12CC3CC(C1)CC(NS(=O)(=O)c1ccc(-c4ccccc4)cc1)(C3)C2)N1Cc2ccc(F)cc2C1 [Compound 102, N-((1s,3r,5R,7S)-3-((2-(5-fluoroisoindolin-2-yl)-2-oxoethyl)amino)adamantan-1-yl)-[1,1′-biphenyl]-4-sulfonamide hydrochloride] | –
23 | 9 | Cc1ncsc1-c1ccc(CNC(=O)[C@@H]2C[C@@H](O)CN2C(=O)[C@@H](NC(=O)CCOCCOc2ccc(-c3ccc(C(=O)NC45CC6CC(CC(NCC(=O)N7Cc8ccc(F)cc8C7)(C6)C4)C5)cc3)cc2)C(C)(C)C)cc1 [Compound 125, (2S,4R)-1-((2S)-2-(3-(2-((4′-((3-((2-(5-fluoroisoindolin-2-yl)-2-oxoethyl)amino)adamantan-1-yl)carbamoyl)-[1,1′-biphenyl]-4-yl)oxy)ethoxy)propanamido)-3,3-dimethylbutanoyl)-4-hydroxy-N-(4-(4-methylthiazol-5-yl)benzyl)pyrrolidine-2-carboxamide] | –
24 | 3 | Cc1ncsc1-c1ccc(CNC(=O)[C@@H]2C[C@@H](O)CN2C(=O)[C@@H](NC(=O)c2ccc(-c3ccc(C(=O)NC45CC6CC(CC(NCC(=O)N7Cc8ccc(F)cc8C7)(C6)C4)C5)cc3)cc2)C(C)(C)C)cc1 [Compound 123, N4-(3-((2-(5-fluoroisoindolin-2-yl)-2-oxoethyl)amino)adamantan-1-yl)-N4′-((S)-1-((2S,4R)-4-hydroxy-2-((4-(4-methylthiazol-5-yl)benzyl)carbamoyl)pyrrolidin-1-yl)-3,3-dimethyl-1-oxobutan-2-yl)-[1,1′-biphenyl]-4,4′-dicarboxamide] | –
